Assay results reported in the supplement of paper PMC11061612.

Tests used:
Experiment in all cases: combination Emax (second highest fraction inhibited in the dose matrix, 72 h); higher = more inhibition; extreme values may be limits of the assay
[1] = system: TCCSUP (Bladder Carcinoma)
Summary of the method: (§1)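 After 24 hours at 37°C and 5% CO2 in 1536-well plates, cells in DMEM/F12 or RPMI plus 10% FBS received two-drug dose matrices for 72 hours. Viability came from CellTiter-Glo 2.0 luminescence and was scaled as inhibition, anchored at 0 by vehicle wells and at 1 by blank wells. Combination Emax is taken as the second-highest inhibition in the matrix, and Bliss excess as the observed combination effect less EA + EB − EA·EB, with EA and EB the single-agent effects.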

T98G (Glioblastoma) = system: T98G (Glioblastoma)
Summary of the method: as §1

[2] = system: SNU-5 (Gastric Carcinoma)
Summary of the method: as §1

[3] = system: RO82-W-1 (Thyroid Gland Carcinoma)
Summary of the method: as §1

[4] = system: CaR-1 (Colorectal Carcinoma)
Summary of the method: as §1

ES4 (Ewing's Sarcoma) = system: ES4 (Ewing's Sarcoma)
Summary of the method: as §1

[5] = system: Daoy (Other Solid Carcinomas)
Summary of the method: as §1

[6] = system: UM-UC-3 (Bladder Carcinoma)
Summary of the method: as §1

[7] = system: DEL (T-Cell Non-Hodgkin's Lymphoma)
Summary of the method: as §1

[8] = system: TE-9 (Esophageal Squamous Cell Carcinoma)
Summary of the method: as §1

[9] = system: KURAMOCHI (Ovarian Carcinoma)
Summary of the method: as §1

[10] = system: SK-ES-1 (Ewing's Sarcoma)
Summary of the method: as §1

[11] = system: B-CPAP (Thyroid Gland Carcinoma)
Summary of the method: as §1

NOS-1 (Osteosarcoma) = system: NOS-1 (Osteosarcoma)
Summary of the method: as §1

[12] = system: RC-K8 (B-Cell Non-Hodgkin's Lymphoma)
Summary of the method: as §1

[13] = system: HCC1806 (Breast Carcinoma)
Summary of the method: as §1

[14] = system: NCI-H82 (Small Cell Lung Carcinoma)
Summary of the method: as §1

[15] = system: CAL-148 (Breast Carcinoma)
Summary of the method: as §1

[16] = system: COLO-205 (Colorectal Carcinoma)
Summary of the method: as §1

[17] = system: Ramos-2G6-4C10 (Burkitt's Lymphoma)
Summary of the method: as §1

Structure (SMILES) | combination Emax [1] | combination Emax (T98G (Glioblastoma)) | combination Emax [2] | combination Emax [3] | combination Emax [4] | combination Emax (ES4 (Ewing's Sarcoma)) | combination Emax [5] | combination Emax [6] | combination Emax [7] | combination Emax [8] | combination Emax [9] | combination Emax [10] | combination Emax [11] | combination Emax (NOS-1 (Osteosarcoma)) | combination Emax [12] | combination Emax [13] | combination Emax [14] | combination Emax [15] | combination Emax [16] | combination Emax [17]
Cc1c2c(nn1C)CSCc1cc(n(C)n1)CSc1cc(c3ccccc3c1)OCCCc1c(C(=O)O)n(C)c3c-2c(Cl)ccc13 [AZD5991] + CC1(C)CCC(CN2CCN(c3ccc(C(=O)NS(=O)(=O)c4ccc(NCC5CCOCC5)c([N+](=O)[O-])c4)c(Oc4cnc5[nH]ccc5c4)c3)CC2)=C(c2ccc(Cl)cc2)C1 [Venetoclax] (first compound max 1 µM, 7x7, partner max 1 µM) | 0.157 | 0.283 | 0.147 | 0.255 | 0.144 | 0.147 | 0.425 | 0.171 | 1 | 0.508 | 0.501 | 1 | 0.18 | 0.889 | 0.185 | 0.596 | 0.914 | 0.411 | 0.135 | 0.985
Cc1c2c(nn1C)CSCc1cc(n(C)n1)CSc1cc(c3ccccc3c1)OCCCc1c(C(=O)O)n(C)c3c-2c(Cl)ccc13 [AZD5991] + CCN(CCO)CCCOc1ccc2c(Nc3cc(CC(=O)Nc4cccc(F)c4)[nH]n3)ncnc2c1 [AZD2811] (first compound max 1 µM, 7x7, partner max 1 µM) | 0.321 | 0.585 | 0.204 | 0.274 | 0.338 | 0.219 | 0.505 | 0.266 | 1 | 0.251 | 0.376 | 1 | 0.313 | 0.809 | 0.379 | 0.776 | 0.972 | 1 | 0.948 | 1
CN(CCO)CC[C@H](CSc1ccccc1)Nc1ccc(S(=O)(=O)NC(=O)c2ccc(N3CCC([C@@H](O)c4ccccc4-c4ccc(Cl)cc4)CC3)cc2)cc1S(=O)(=O)C(F)(F)F [AZD4320] + C[C@@H]1COCCN1C2=NC(=NC(=C2)C3(CC3)[S@](=N)(=O)C)C4=C5C=CNC5=NC=C4 [AZD6738] (first compound max 1 µM, 7x7, partner max 10 µM) | 0.865 | 0.954 | 0.978 | 0.785 | 0.514 | 1 | 0.972 | 0.7 | 1 | 0.372 | 0.687 | 1 | 0.804 | 0.914 | 0.956 | 0.972 | 0.932 | 0.978 | 0.623 | 0.946
CC1(C)CCC(CN2CCN(c3ccc(C(=O)NS(=O)(=O)c4ccc(NCC5CCOCC5)c([N+](=O)[O-])c4)c(Oc4cnc5[nH]ccc5c4)c3)CC2)=C(c2ccc(Cl)cc2)C1 [Venetoclax] + C[C@@H]1COCCN1C2=NC(=NC(=C2)C3(CC3)[S@](=N)(=O)C)C4=C5C=CNC5=NC=C4 [AZD6738] (first compound max 1 µM, 7x7, partner max 10 µM) | 0.638 | 0.889 | 0.934 | 0.322 | 0.484 | 0.793 | 0.9 | 0.538 | 0.996 | 0.274 | 0.567 | 0.914 | 0.631 | 0.67 | 0.837 | 0.938 | 0.86 | 0.888 | 0.344 | 0.789
CC(=O)c1c(C)c2cnc(Nc3ccc(N4CCNCC4)cn3)nc2n(C2CCCC2)c1=O [Palbociclib] + Cc1c2c(nn1C)CSCc1cc(n(C)n1)CSc1cc(c3ccccc3c1)OCCCc1c(C(=O)O)n(C)c3c-2c(Cl)ccc13 [AZD5991] (first compound max 10 µM, 7x7, partner max 1 µM) | 0.173 | 0.4 | 0.347 | 0.189 | 0.229 | 0.244 | 0.21 | 0.253 | 1 | 0.14 | 0.358 | 0.851 | 0.427 | 0.925 | 0.316 | 0.383 | 0.98 | 0.376 | 0.497 | 0.986
CC1(C)CCC(CN2CCN(c3ccc(C(=O)NS(=O)(=O)c4ccc(NCC5CCOCC5)c([N+](=O)[O-])c4)c(Oc4cnc5[nH]ccc5c4)c3)CC2)=C(c2ccc(Cl)cc2)C1 [Venetoclax] + C1CN(CCC1(C(=O)N[C@@H](CCO)C2=CC=C(C=C2)Cl)N)C3=NC=NC4=C3C=CN4 [Capivasertib] (first compound max 1 µM, 7x7, partner max 3 µM) | 0.189 | 0.326 | 0.336 | 0.251 | 0.264 | 0.155 | 0.21 | 0.272 | 0.295 | 0.192 | 0.536 | 0.469 | 0.177 | 0.171 | 0.333 | 0.231 | 0.3 | 0.966 | 0.237 | 0.173
